Source: patent publication US10947188B2, “Small molecule ferroptosis inducers” (THE TRUSTEES OF COLUMBIA UNIVERSITY IN THE CITY OF NEW YORK, priority 2016, dated 2021)
Values after ≈ are worked out from the molar mass of the structure shown.

system: HT-1080 cells; experiment: Lethality of commercially available CIL41/70 structural analogs; type: cell-based; details: Homo sapiens, tested once in technical triplicates
Description: 1,000 cells per 36 μl were seeded in each well in 384-well plates. Lethal compounds were dissolved, and a twofold, 12-point dilution series was prepared in DMSO. Compound solutions were further diluted with media at 1:25, and 4 μl per well of the diluted solutions was added to cell cultures immediately after cells were seeded. […] When other cell-death-modulating compounds (100 nM sodium selenite, 1 μM cerivastatin, 100 μg/mL mevalonic acid) were used in cotreatments, they were supplemented to cell culture for 24 h before lethal compounds were added to cell culture, after which cells were further incubated for 24 h at 37° C. under 5% CO2. On the day of the viability measurement, we added 10 μl per well of 50% Alamar Blue diluted in media (Life Technologies) and further incubated the cells at 37° C. for 6 h. Fluorescence intensity (excitation/emission: 530/590) was measured with a Victor 3 plate reader (PerkinElmer), and the normalized viability was calculated as VL=(IL−I0)/(IV−I0), where VL, I0, IV, and IL are the normalized viability and the raw fluorescence intensities from the wells containing media, cells treated with a vehicle (negative control), and cells with the lethal compound (L), respectively. When the effect of a chemical modulator (M) on L was calculated, we instead used the equation VL|M=(IM,L−I0)/(IM,V−I0), where VL|M, IM,L and IM,V are the normalized viability, and fluorescence intensity from cells treated with […], respectively. The viability was typically measured in biological triplicate unless otherwise specified. A representative dose-response curve, the mean and standard error of normalized viability from one replicate were plotted. HT-1080 viability after modulator treatments corresponding to FIG. 3C and FIGS. 5E-5F is available in FIGS. 19A-19C.
Their lethality was tested once in HT-1080 cells in technical triplicates.

Compound	EC50 [µg/mL]
COc1ccc(C/C(N)=N/OC(=O)COc2ccc(C)cc2Br)cc1 [CB47]	> 20
N/C(=N\OC(=O)Cc1ccccc1F)C12CC3CC(CC(C3)C1)C2 [EN8]	> 20
CC(=O)O/N=C(\N)Cc1ccc(-c2csnn2)cc1 [MB8]	> 20
COc1ccc(C/C(N)=N/OC(=O)Cc2ccccc2)cc1OC [CB65]	> 20
Cc1ccc(OCC(=O)O/N=C(\N)Cc2cccc3ccccc23)cc1C [CB89]	> 20
N/C(Cc1ccc([N+](=O)[O-])cc1)=N\OC(=O)CC1CCCCC1 [CB83]	> 20
N/C(Cc1ccc(Cl)cc1)=N\OC(=O)COc1ccccc1Cl [CB4]	> 20
N/C(Cc1ccc([N+](=O)[O-])cc1)=N\OC(=O)CCCOc1ccccc1 [CB135]	> 20
Cc1ccc(OCC(=O)O/N=C(\N)Cc2ccc([N+](=O)[O-])cc2)cc1C [CB92]	> 20
CC(C)(C)CC(=O)O/N=C(\N)C1(c2ccc(Cl)cc2Cl)CC1 [MB9]	> 20
Cc1ccc(OCC(=O)O/N=C(\N)Cc2cccs2)c(Br)c1 [CB23]	> 20
COc1ccc(OCC(=O)O/N=C(\N)Cc2ccc(Cl)cc2Cl)cc1 [CB72]	> 20
COc1ccc(CC(=O)O/N=C(\N)Cc2ccc(Cl)c(Cl)c2)cc1OC [CB143]	> 20
Cc1ccc(OC/C(N)=N/OC(=O)CCn2cc(C(F)(F)F)ccc2=O)cc1 [MB17]	> 20
CC(=O)O/N=C(N)/C(=N/OC(C)=O)c1nc2ccccc2[nH]1 [CB19]	> 20
N/C(Cc1cccs1)=N\OC(=O)COc1ccccc1Cl [CB68]	> 20
COc1ccc(CC(=O)C/N=C(\N)Cc2cccc3ccccc23)cc1 [CB86]	> 20
COc1ccc(C/C(N)=N/OC(=O)Cc2ccc(Cl)cc2)cc1OC [CB8]	> 20
CC(C)c1ccc(OCC(=O)O/N=C(\N)Cc2ccc([N+](=O)[O-])cc2)cc1 [CB93]	> 20
COc1ccc(CC(=O)O/N=C(\N)Cc2cccc3ccccc23)cc1OC [CB64]	> 20
COc1ccc(CC(=O)O/N=C(\N)Cc2ccc(OC)cc2)cc1 [CB84]	> 20
N/C(Cc1ccc(Cl)cc1Cl)=N\OC(=O)Cc1ccccc1 [CB127]	> 20
COc1ccc(CC(=O)O/N=C(/N)Cn2nc(C)c([N+](=O)[O-])c2C)cc1 [ZE5]	> 20
N/C(Cc1ccc(Cl)cc1)=N\OC(=O)CCc1ccccc1 [CB55]	> 20

Compound	EC50 [µg/mL]
Cc1ccc(OCC(=O)O/N=C(\N)Cc2ccc([N+](=O)[O-])cc2)c(C)c1 [CB16]	> 20
COc1ccc(CC(=O)O/N=C(\N)Cn2nc(C(F)(F)F)cc2C)cc1 [ZE3]	> 20
COc1ccc(C/C(N)=N/OC(=O)COc2cccc3ccccc23)cc1 [CB10]	> 20
COc1ccc(/C=C/C(=O)O/N=C2\CCCCCN2)cc1OC [EN2]	10.5 (≈ 33 µM)
N/C(Cc1cccc2ccccc12)=N\OC(=O)CCC1CCCCC1 [CB105]	> 20
COc1ccc(C/C(N)=N/OC(=O)COc2ccc(Br)c(C)c2)cc1 [CB37]	> 20
Cc1cc(Cl)ccc1OCC(=O)O/N=C(\N)Cc1ccc([N+](=O)[O-])cc1 [CB125]	> 20
N/C(Cc1ccc(Cl)cc1)=N\OC(=O)COc1ccc(Br)cc1 [CB42]	> 20
CCC(C(=O)O/N=C(\N)Cc1cccc2ccccc12)c1ccccc1 (stereo not shown) [CB111]	10.7 (≈ 30.9 µM)
N/C(Cc1ccc([N+](=O)[O-])cc1)=N\OC(=O)CCCc1ccccc1 [CB77]	> 20
N/C(COc1cccc(Cl)c1)=N\OC(=O)CCn1cc(C(F)(F)F)ccc1=O [MB16]	> 20
CC(=O)O/N=C(/N)Cn1nc(C)c([N+](=O)[O-])c1C [CB146]	> 20
N/C(CC(=O)NC1CCCCC1)=N\OC(=O)C1CCCN1C(=O)c1cccs1 (stereo not shown) [EN9]	> 20
N/C(Cn1c(C(F)(F)F)nc2ccccc21)=N\OC(=O)CC1CC2CCC1C2 (stereo not shown) [ZE11]	> 20
COc1ccccc1C/C(N)=N/OC(=O)COc1cc(C)cc(C)c1C [CB126]	9.3 (≈ 26.1 µM)
CC(Oc1cccc(Cl)c1)C(=O)O/N=C(\N)Cc1ccc(Cl)cc1Cl (stereo not shown) [CB137]	> 20
N/C(Cc1ccc(Cl)cc1)=N\OC(=O)C1CCCCC1 [CB58]	17.6 (≈ 59.7 µM)
CC(=O)O/N=C(\N)Cc1csc2ccc(Cl)cc12 [MB5]	> 20
COc1ccc(C/C(N)=N/OC(C)=O)cc1OC [CB66]	> 20
N/C(Cc1ccc(Cl)cc1Cl)=N\OC(=O)/C=C/c1ccccc1 [AS2]	12.3 (≈ 35.1 µM)
Cc1nn(C/C(N)=N/OC(=O)CC23CC4CC(CC(C4)C2)C3)c(C)c1Br [ZE2]	15.6 (≈ 36.9 µM)
N/C(=N\OC(=O)C1CCCN1C(=O)c1cccs1)C(c1ccccc1)c1ccccc1 (stereo not shown) [EN6]	> 20
CCC(Oc1ccccc1)C(=O)O/N=C(\N)Cc1ccc(Cl)cc1Cl (stereo not shown) [CB140]	8.56 (≈ 22.5 µM)
CC(C)(C)C(=O)O/N=C(\N)Cc1cccc2ccccc12 [MB13]	> 20

Compound	EC50 [µg/mL]
CC(C)c1ccc(OCC(=O)O/N=C(\N)Cc2ccc([N+](=O)[O-])cc2)c(Br)c1 [CB130]	> 20
COc1ccccc1OCC(=O)O/N=C(\N)Cc1ccc(Cl)cc1Cl [CB101]	> 20
CC(Cl)(Cl)C(=O)O/N=C1\CCCCCN1 [EN4]	> 20
Cc1cc(OCC(=O)O/N=C(\N)Cc2ccc([N+](=O)[O-])cc2)cc(C)c1Cl [CB50]	> 20
COc1ccc(C/C(N)=N/OC(=O)CCc2ccccc2)cc1 [CB63]	> 20
Cc1cccc(NC(=O)C/C(N)=N/OC(=O)C2CCCN2C(=O)c2ccco2)c1C (stereo not shown) [EN10]	> 20
CCc1ccc(OCC(=O)O/N=C(\N)Cc2ccc([N+](=O)[O-])cc2)c(Br)c1 [CB129]	> 20
CC(C)(C)c1ccc(OCC(=O)O/N=C(\N)Cc2ccc([N+](=O)[O-])cc2)cc1 [CB7]	> 20
Cc1cccc(OCC(=O)O/N=C(\N)Cc2ccc(Cl)cc2Cl)c1C [CB120]	> 20
Cc1cccc(OCC(=O)O/N=C(\N)Cc2ccc(Cl)c(Cl)c2)c1C [CB112]	> 20
N/C(Cc1ccc(Cl)cc1)=N\OC(=O)Cc1ccccc1 [ZE16]	> 20
Cc1cccc(OCC(=O)O/N=C(\N)Cc2cccs2)c1 [CB40]	> 20
CCC(Oc1ccccc1)C(=O)O/N=C(\N)Cc1ccc([N+](=O)[O-])cc1 (stereo not shown) [CB136]	> 20
N/C(Cc1ccc([N+](=O)[O-])cc1)=N\OC(=O)COc1ccccc1Cl [CB67]	> 20
CC(Oc1ccc(Cl)cc1Cl)C(=O)O/N=C(\N)Cc1ccc([N+](=O)[O-])cc1 (stereo not shown) [CB82]	> 20
CCc1nc(C)ccc1OC/C(N)=N/OC(C)=O [CB1]	> 20
Cc1cc(OCC(=O)O/N=C(\N)Cc2ccc([N+](=O)[O-])cc2)cc(C)c1Br [CB95]	> 20
COc1ccccc1CC(=O)O/N=C(\N)Cc1cccc2ccccc12 [CB108]	> 20
COc1ccccc1C/C(N)=N/OC(=O)COc1cccc(C)c1 [CB26]	> 20
CCC(=O)O/N=C(\N)Cn1nc(C)c([N+](=O)[O-])c1C [CB148]	> 20
COc1ccccc1C/C(N)=N/OC(=O)COc1ccc(Cl)cc1 [CB52]	> 20
COc1ccccc1C/C(N)=N/OC(=O)COc1ccc(C)cc1Br [CB22]	> 20
N/C(Cc1cccc2ccccc12)=N\OC(=O)CSc1ccccc1 [CB131]	> 20
N/C(Cc1cccc2ccccc12)=N\OC(=O)Cc1ccccc1[N+](=O)[O-] [CB114]	> 20

Compound	EC50 [µg/mL]
COc1ccccc1C/C(N)=N/OC(=O)COc1ccc2ccccc2c1 [CB61]	> 20
Cc1nn(C/C(N)=N/OC(=O)C(C)C)c(C)c1[N+](=O)[O-] [ZE4]	> 20
Cc1cccc(OCC(=O)O/N=C(\N)Cc2ccc(Cl)cc2Cl)c1 [CB35]	> 20
N/C(Cc1ccc([N+](=O)[O-])cc1)=N\OC(=O)COc1ccc(Br)cc1Cl [CB76]	> 20
COc1ccccc1CC(=O)O/N=C(\N)Cc1ccc(Cl)cc1Cl [CB97]	> 20
COc1ccccc1C/C(N)=N/OC(=O)COc1cccc(C)c1C [CB123]	> 20
COc1ccccc1C/C(N)=N/OC(=O)/C=C/c1ccccc1 [CB62]	8.63 (≈ 27.8 µM)
Cc1cc(OCC(=O)O/N=C(\N)Cc2ccc(Cl)cc2Cl)cc(C)c1Br [CB106]	> 20
N/C(Cc1ccc([N+](=O)[O-])cc1)=N\OC(=O)COc1cccc2ccccc12 [CB6]	> 20
CC(C)(C)C(=O)O/N=C(\N)COc1ccc(C(C)(C)C)cc1 [MB14]	2.6 (≈ 8.49 µM)
N/C(Cc1cccs1)=N\OC(=O)COc1ccc(Br)cc1Cl [CB78]	> 20
Cc1cccc(OCC(=O)O/N=C(\N)Cc2ccc([N+](=O)[O-])cc2)c1 [CB39]	> 20
Cc1cccc(OCC(=O)O/N=C(/N)Cn2nc(C)c([N+](=O)[O-])c2C)c1 [ZE13]	> 20
Cc1cc(C(F)(F)F)nn1C/C(N)=N/OC(=O)C1CCCCC1 [ZE15]	> 20
Cc1ccc(OCC(=O)O/N=C(\N)Cc2ccc([N+](=O)[O-])cc2)c(Br)c1 [CB25]	> 20
N/C(Cc1cccc2ccccc12)=N\OC(=O)CC1CCCCC1 [CB85]	> 20
COc1ccccc1C/C(N)=N/OC(=O)COc1cc(C)c(Cl)c(C)c1 [CB49]	7.23 (≈ 19.2 µM)
Cc1nn(C/C(N)=N\OC(=O)COc2cc(Cl)ccc2Cl)c(C)c1[N+](=O)[O-] [ZE14]	> 20
Cc1ccc(OCC(=O)ON[C@H](N)Cc2cccs2)cc1C [CB94]	> 20
Cc1ccc(CC(=O)O/N=C(\N)Cc2ccc(Cl)cc2Cl)cc1 [CB142]	> 20
CCc1ccc(OCC(=O)O/N=C(\N)Cc2ccc([N+](=O)[O-])cc2)cc1 [CB79]	> 20
Cc1nn(C/C(N)=N/OC(=O)Cn2nc(C(F)(F)F)cc2C2CC2)c(C)c1[N+](=O)[O-] [ZE9]	> 20
COc1ccc(CC(=O)O/N=C(\N)Cc2ccc(Cl)cc2Cl)cc1OC [CB59]	> 20
Cc1ccccc1OCC(=O)O/N=C(\N)Cc1ccc(Cl)cc1Cl [CB28]	> 20

same assay, conditions: tested once in technical triplicates

Compound	EC50 of CIL41/70 and structural analogs (lethality)
CC(=NOCC(=O)ON=C(N)COc1cccc(Cl)c1)c1ccc(Cl)cc1 [MB3]	MB3 (>20 ug/mL)
